Converted amounts (≈) assume the structure as drawn. “And” between values parts separate entries of the source, which are not always exact repeats. Identical values can stand only once. Like-named read-outs stand apart in the source and are kept apart here.
Key:
human MAO-A [1] = biological target: T1, human MAO-A (Homo sapiens, UniProt P21397); test: Inhibition kinetics and time course of MAO-A inhibition; type: biochemical; details: for reversibility of MAO-A inhibition: time course, absorbance of 4-hydroxyquinoline at 316 nm, inhibitor close to IC50
T1 construct: purchased Sigma Aldrich; host or cells: insect cells infected with baculovirus (microsomes)
T1 sequence (P21397 1-527): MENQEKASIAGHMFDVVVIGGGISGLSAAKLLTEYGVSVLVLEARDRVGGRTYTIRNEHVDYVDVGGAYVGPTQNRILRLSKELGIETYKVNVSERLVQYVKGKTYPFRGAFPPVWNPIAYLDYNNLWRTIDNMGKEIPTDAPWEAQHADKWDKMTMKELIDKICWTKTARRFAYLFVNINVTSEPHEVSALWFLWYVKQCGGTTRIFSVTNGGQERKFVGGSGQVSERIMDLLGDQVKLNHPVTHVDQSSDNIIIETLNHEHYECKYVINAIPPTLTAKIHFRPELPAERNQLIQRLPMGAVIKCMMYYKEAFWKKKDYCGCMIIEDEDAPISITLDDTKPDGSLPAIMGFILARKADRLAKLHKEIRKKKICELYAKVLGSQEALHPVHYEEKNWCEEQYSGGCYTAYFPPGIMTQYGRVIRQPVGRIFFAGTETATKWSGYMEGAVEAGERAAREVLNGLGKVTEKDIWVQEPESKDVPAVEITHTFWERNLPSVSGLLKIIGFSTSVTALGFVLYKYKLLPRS
Description: For the sake of clarity, the position of the Mannich base (-CH2NR2) on the main coumarin core will be indicated as C8, whereas the positions of Cl or Br and OMe on the 4-coumarin-3-yl moiety will be indicated as C6′ and C8′.
Time courses of MAO-A inhibition by 2b and 5b, using a spectrophotometric assay measuring the absorbance of 4-
(1 picture or pasted object on this page, not shown here)

electric eel eeAChE = biological target: T2, electric eel eeAChE (Electrophorus electricus, UniProt O42275); test: biochemical; details: for inhibition at 10 µM / eeAChE % inhibition: at 10 µM concentration, mean ± SD; for IC50: mean ± SD of three independent determinations, ~10 means 50–60% inhibition at 10 µM
T2 construct: Acetylcholinesterase from electric eel and butyrylcholinesterase from equine serum (Sigma Aldrich) were employed; purchased Sigma Aldrich; host or cells: electric eel (natural source)

[2] = Lipophilicity by RP-HPLC (log k'w); type: physicochemical; details: C18, extrapolated to 100% water mobile phase
Protocol: The lipophilicity of the five compounds in Table 4 was assessed by calculation and experimental approaches. As a calculated lipophilicity parameter (log Pcalc), we took from the SwissADME free website (http://www.swissadme.ch) the ‘Consensus Log Po/w’, that is, the arithmetic mean of octanol/water log Ps calculated by five methods (iLOGP, XLOGP3, WLOGP, MLOGP, and SILICOS-IT).
The lipophilicity parameters were determined by an RP-HPLC technique. In short, methanolic solutions of the examined compounds (1 mg·mL^−1) were analyzed by the Agilent 1260 infinite HPLC system (Agilent Technologies, Milan, Italy) equipped with a diode array detector (DAD), using a Phenomenex C18-column (Kinetex 5 μ, 100 Å, 150 × 3 mm) as the stationary phase and MeOH/water buffer mobile phases with different v/v composition (i.e., mobile phases containing 0.05 increments of MeOH volume fractions in 10 mM ammonium formate buffer at pH 4.5; φMeOH ranging between 0.70 and 0.20). The chromatographic measurements were carried out at 25 ± 1 °C, flow rate of 0.5 mL·min^−1, and detection at λ 330 nm. The log of capacity factors of each compound at different mobile phase compositions was calculated (log k′ = log (tR − t0)/t0, where tR represents the retention time of the solute and t0 is the column dead time). For each compound, the equation of the linear relationship between log k′ and φMeOH (R^2 > 0.991) on at least five datapoints, each from duplicate, was derived by regression analysis and the intercept at the y-axis (i.e., φMeOH = 0) calculated as the lipophilicity parameter log k′w.

[3] = Kinetic solubility in aqueous buffers (RP-HPLC); type: physicochemical; details: for solubility at 2 h: PBS buffer, 25 °C, pH 7.4, aqueous buffer, kinetic from dmso stock, PBS (50 mM, pH 7.4, 0.15 M KCl) at 25 ± 1 °C, n = 3, read-out: Solubility Exp.
Protocol: Water solubility and lipophilicity parameters were measured following previously reported methods. […] The mixture was then separated by centrifugation at 2500 rpm for 3 min. Immediately after filtration, 100 µL of the filtrate was mixed with an equal volume of a 1:1 (v/v) DMSO and PBS (50 mM, pH 7.4, KCl 0.15 M) or HCl (0.01 M, pH 2, KCl 0.15 M) solution to prevent precipitation from the saturated solution and subsequently analyzed by HPLC. The peak area was compared to a calibration curve of the tested compound in MeOH. The analytical parameters were set as follows. Mobile phase: MeOH/water pH 2.8 (acetic acid 0.5% v/v) at different percentages depending on the retention time of each test compound; stationary phase: Phenomenex, Kinetex 5 µ, C8, (150 × 3 mm); flux: […]; injection: 2 µL; λ 330 nm. The analyses were performed on the Agilent HPLC 1260 Infinity Series Integrated System (Agilent Technologies, Milan, Italy).

horse serum eqBChE = biological target: T3, horse serum eqBChE (Equus caballus, UniProt P81908); test: biochemical; type: biochemical; details: for inhibition at 10 µM / eqBChE % inhibition / eqBChE inhibition class: at 10 µM concentration
T3 construct: Acetylcholinesterase from electric eel and butyrylcholinesterase from equine serum (Sigma Aldrich) were employed; purchased Sigma Aldrich; host or cells: equine serum
Protocol: (§1) Cholinesterase inhibition assays were carried out using the Ellman spectrophotometric method, modified for a 96-well plate format. Acetylcholinesterase from electric eel and butyrylcholinesterase from equine serum (Sigma Aldrich) were employed. The measurements were performed in triplicate using clear, flat-bottom polystyrene plates (Greiner Bio-One).

human huMAO-B = biological target: T4, human huMAO-B (Homo sapiens, UniProt P27338); test: biochemical; type: biochemical; details: for inhibition at 10 µM / huMAO-B % inhibition: at 10 µM concentration, mean ± SD
T4 construct: purchased Sigma Aldrich; host or cells: insect cells infected with baculovirus (microsomes)
T4 sequence (P27338 1-520): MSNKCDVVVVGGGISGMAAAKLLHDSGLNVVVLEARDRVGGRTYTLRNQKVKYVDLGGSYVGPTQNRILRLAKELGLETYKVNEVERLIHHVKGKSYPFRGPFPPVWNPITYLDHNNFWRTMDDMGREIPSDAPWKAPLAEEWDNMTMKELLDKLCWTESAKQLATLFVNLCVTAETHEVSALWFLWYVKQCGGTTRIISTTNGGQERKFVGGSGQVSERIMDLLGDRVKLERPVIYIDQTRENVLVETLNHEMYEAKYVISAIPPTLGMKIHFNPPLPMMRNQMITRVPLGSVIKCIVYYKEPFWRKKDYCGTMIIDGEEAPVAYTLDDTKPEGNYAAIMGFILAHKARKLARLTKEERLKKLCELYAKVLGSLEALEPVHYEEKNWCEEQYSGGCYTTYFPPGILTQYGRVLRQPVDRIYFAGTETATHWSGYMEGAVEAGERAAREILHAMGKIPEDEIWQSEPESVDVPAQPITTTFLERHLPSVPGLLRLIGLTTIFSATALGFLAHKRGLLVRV
Protocol: (§2) The inhibition assays of human monoamine oxidases were conducted using a fluorescence-based method with kynuramine as a non-selective substrate for each isoform, MAO-A/B [44, 45, 46]. Recombinant human MAO-A and MAO-B (microsomes from insect cells infected with baculovirus; Sigma Aldrich, St. Louis, MO, USA) (Merk Life Science S.r.l., Milan, Italy) were used. The measurements were performed in triplicate in black round-bottom polystyrene 96-well plates (Greiner Bio-One, Kremsmünster, Austria). […] In the MAO inhibition assays, all compounds were initially screened at a concentration of 10 µM. Each of them was preincubated at 37 °C for 20 min with 50 µM kynuramine in a phosphate buffer (PBS, 0.1 M, pH 8.0), adjusted to 0.39 osmolarity with KCl. After adding recombinant human MAO-A/B (250 U/mg and 59 U/mg, respectively) and incubating for another 30 min, NaOH was added. The fluorescence was measured at excitation/emission wavelengths of 310/400 nm. […] The IC50 is reported as the mean ± SD of three independent experiments, each performed in duplicate.

human MAO-A [4] = biological target: T1, human MAO-A; test: biochemical; type: biochemical; details: for inhibition at 10 µM / huMAO-A % inhibition: at 10 µM concentration, mean ± SD
Protocol: as §2

human huAChE = human huAChE (Homo sapiens, UniProt P22303); test: biochemical; type: biochemical
Protocol: The inhibition of human huAChE was also evaluated for five compounds.
as §1

[5] = read-out: eqBChE inhibition class
[6] = mean ± SD, read-out: eqBChE % inhibition
[7] = mean ± SD of three independent determinations, ~10 means 50–60% inhibition at 10 µM

T3 sequence (P81908 whole entry): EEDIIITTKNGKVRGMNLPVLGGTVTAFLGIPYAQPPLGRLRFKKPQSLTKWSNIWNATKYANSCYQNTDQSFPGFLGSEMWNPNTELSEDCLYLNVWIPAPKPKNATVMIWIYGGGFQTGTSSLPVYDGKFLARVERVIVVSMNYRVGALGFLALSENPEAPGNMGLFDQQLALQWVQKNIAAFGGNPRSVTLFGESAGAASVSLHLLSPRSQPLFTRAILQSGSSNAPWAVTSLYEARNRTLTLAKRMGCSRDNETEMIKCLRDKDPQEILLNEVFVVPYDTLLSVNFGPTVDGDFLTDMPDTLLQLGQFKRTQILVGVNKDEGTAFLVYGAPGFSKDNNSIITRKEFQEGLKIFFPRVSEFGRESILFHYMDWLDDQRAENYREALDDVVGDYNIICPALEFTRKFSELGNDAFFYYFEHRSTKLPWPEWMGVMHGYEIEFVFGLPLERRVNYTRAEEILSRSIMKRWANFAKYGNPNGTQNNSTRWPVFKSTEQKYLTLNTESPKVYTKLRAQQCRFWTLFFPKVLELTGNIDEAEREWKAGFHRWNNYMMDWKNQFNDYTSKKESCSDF
T2 sequence (O42275 24-633): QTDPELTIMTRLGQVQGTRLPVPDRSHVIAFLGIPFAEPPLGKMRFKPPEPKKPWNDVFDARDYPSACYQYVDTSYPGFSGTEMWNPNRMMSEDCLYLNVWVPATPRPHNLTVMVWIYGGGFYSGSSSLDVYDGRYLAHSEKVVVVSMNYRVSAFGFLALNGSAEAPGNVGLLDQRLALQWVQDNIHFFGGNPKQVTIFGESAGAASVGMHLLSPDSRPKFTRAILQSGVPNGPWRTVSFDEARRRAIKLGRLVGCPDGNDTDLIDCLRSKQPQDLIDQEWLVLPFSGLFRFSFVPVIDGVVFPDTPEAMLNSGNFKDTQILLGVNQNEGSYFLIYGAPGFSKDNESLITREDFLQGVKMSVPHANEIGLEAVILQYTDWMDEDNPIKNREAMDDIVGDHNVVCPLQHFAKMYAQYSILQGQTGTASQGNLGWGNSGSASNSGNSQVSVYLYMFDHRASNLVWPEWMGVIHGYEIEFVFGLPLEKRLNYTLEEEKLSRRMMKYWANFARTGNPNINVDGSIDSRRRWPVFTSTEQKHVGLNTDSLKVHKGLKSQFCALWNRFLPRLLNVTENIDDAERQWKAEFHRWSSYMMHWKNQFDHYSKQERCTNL
human huAChE, sequence (P22303 32-614): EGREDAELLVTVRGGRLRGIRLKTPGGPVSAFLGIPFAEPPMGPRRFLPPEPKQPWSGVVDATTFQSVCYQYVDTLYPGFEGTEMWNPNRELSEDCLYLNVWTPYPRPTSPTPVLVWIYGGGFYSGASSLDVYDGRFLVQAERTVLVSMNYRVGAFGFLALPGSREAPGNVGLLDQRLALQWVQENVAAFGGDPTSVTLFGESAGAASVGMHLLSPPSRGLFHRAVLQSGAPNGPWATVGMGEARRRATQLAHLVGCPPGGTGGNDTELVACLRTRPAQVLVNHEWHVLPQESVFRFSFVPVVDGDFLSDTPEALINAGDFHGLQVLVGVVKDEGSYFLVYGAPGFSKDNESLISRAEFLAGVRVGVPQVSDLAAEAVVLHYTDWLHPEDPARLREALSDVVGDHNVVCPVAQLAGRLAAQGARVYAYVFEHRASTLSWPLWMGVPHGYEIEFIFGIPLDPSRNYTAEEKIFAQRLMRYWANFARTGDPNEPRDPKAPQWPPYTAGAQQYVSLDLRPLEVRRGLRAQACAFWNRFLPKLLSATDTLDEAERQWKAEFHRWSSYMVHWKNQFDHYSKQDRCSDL

C#CCN(C)CCCOc1ccc(Cl)cc1Cl [Clorgiline, reference compound]
reversibility of MAO-A inhibition (human MAO-A [1]): completely flattened

CN(C)Cc1c(O)ccc2c(-c3cc4ccccc4oc3=O)cc(=O)oc12 [Compound 2a, 8-((dimethylamino)methyl)-4-(2-oxo-2H-chromen-3-yl)-7-hydroxy-2H-chromen-2-one]
inhibition at 10 µM (electric eel eeAChE): 22%
Log k’w (polycratic capacity factor) [2]: 2.11
solubility at 2 h [3]: 183 µM (≈ 66.5 µg/mL)
experimental solubility in PBS pH 7.4, times higher than calculated with the ESOL model ([3]; PBS pH 7.4 vs ESOL): two
inhibition at 10 µM (horse serum eqBChE; [5]): < 10%
inhibition at 10 µM (human huMAO-B): 36%
IC50 (human MAO-A [4]): 8.3 ± 0.36 µM

COc1cccc2cc(-c3cc(=O)oc4c(CN(C)C)c(O)ccc34)c(=O)oc12 [Compound 2d, 8-((dimethylamino)methyl)-4-(8-methoxy-2-oxo-2H-chromen-3-yl)-7-hydroxy-2H-chromen-2-one]
inhibition at 10 µM (electric eel eeAChE): 39%
Log k’w (polycratic capacity factor) [2]: 2.32
solubility at 2 h [3]: 196 µM (≈ 77.1 µg/mL)
inhibition at 10 µM (horse serum eqBChE; [6]): 25%
inhibition at 10 µM (human huMAO-B): 28%

CCCN(CCC)Cc1c(O)ccc2c(-c3cc4ccccc4oc3=O)cc(=O)oc12 [Compound 4a]
inhibition at 10 µM (electric eel eeAChE): 37%
inhibition at 10 µM (horse serum eqBChE; [6]): 22%
inhibition at 10 µM (human huMAO-B): 33%
inhibition at 10 µM (human MAO-A [4]): 29%

CCCN(CCC)Cc1c(O)ccc2c(-c3cc4cccc(OC)c4oc3=O)cc(=O)oc12 [Compound 4d, 8-((dipropylamino)methyl)-4-(8-methoxy-2-oxo-2H-chromen-3-yl)-7-hydroxy-2H-chromen-2-one]
IC50 (electric eel eeAChE): < 10 µM and 3.05 µM
IC50 (human huAChE): 0.97 ± 0.2 µM
inhibition at 10 µM (horse serum eqBChE; [6]): 14%
inhibition at 10 µM (human huMAO-B): 43%
inhibition at 10 µM (human MAO-A [4]): 29%

CCCCN(C)Cc1c(O)ccc2c(-c3cc4cc(Cl)ccc4oc3=O)cc(=O)oc12 [Compound 5b]
eeAChE % inhibition (electric eel eeAChE): [25 ± 5] %
IC50 (human huAChE; [7]): ~10 µM
eqBChE % inhibition (horse serum eqBChE; mean ± SD): [17 ± 7] %
IC50 (human huMAO-B; [7]): ~10 µM
IC50 (human MAO-A [4]; [7]): 1.85 ± 0.11 µM
mode of inhibition of MAO-A (human MAO-A [1]; Michaelis–Menten and Lineweaver–Burk plots): competitive
Ki (human MAO-A [1]; human MAO-A, competitive inhibition, read-out: inhibition constant (Ki) MAO-A): 0.326 µM
reversibility of MAO-A inhibition (human MAO-A [1]): reversible

CCCCN(C)Cc1c(O)ccc2c(-c3cc4cccc(OC)c4oc3=O)cc(=O)oc12 [Compound 5d, 8-((butyl(methyl)amino)methyl)-4-(8-methoxy-2-oxo-2H-chromen-3-yl)-7-hydroxy-2H-chromen-2-one]
IC50 (electric eel eeAChE): < 10 µM and 7.8 µM
inhibition at 10 µM (horse serum eqBChE; [6]): 40%
IC50 (human huMAO-B): ~10 µM
inhibition at 10 µM (human MAO-A [4]): 39%

COCCN(CCOC)Cc1c(O)ccc2c(-c3cc4cc(Cl)ccc4oc3=O)cc(=O)oc12 [Compound 6b]
eeAChE % inhibition (electric eel eeAChE): [16 ± 4] %
eqBChE inhibition class (horse serum eqBChE): i.a. (compounds displaying average % inhibition less than 10% at 10 µM concentration)
huMAO-B % inhibition (human huMAO-B): [35 ± 9] %
huMAO-A % inhibition (human MAO-A [4]): [45 ± 3] %

COCCN(CCOC)Cc1c(O)ccc2c(-c3cc4cccc(OC)c4oc3=O)cc(=O)oc12 [Compound 6d, 8-((bis(2-methoxyethyl)amino)methyl)-4-(8-methoxy-2-oxo-2H-chromen-3-yl)-7-hydroxy-2H-chromen-2-one]
inhibition at 10 µM (electric eel eeAChE): 20%
inhibition at 10 µM (horse serum eqBChE; [5]): < 10%
inhibition at 10 µM (human huMAO-B): 31%
inhibition at 10 µM (human MAO-A [4]): 26%

COc1cccc2cc(-c3cc(=O)oc4c(CN(CC(C)C)CC(C)C)c(O)ccc34)c(=O)oc12 [Compound 7d]
IC50 (electric eel eeAChE): ~10 µM
eqBChE % inhibition (horse serum eqBChE; mean ± SD): [34 ± 3] %
huMAO-B % inhibition (human huMAO-B): [31 ± 2] %
huMAO-A % inhibition (human MAO-A [4]): [27 ± 3] %

CN(Cc1ccccc1)Cc1c(O)ccc2c(-c3cc4cc(Cl)ccc4oc3=O)cc(=O)oc12 [Compound 8b]
eeAChE % inhibition (electric eel eeAChE): [16 ± 6] %
eqBChE inhibition class (horse serum eqBChE): i.a. (compounds displaying average % inhibition less than 10% at 10 µM concentration)
huMAO-B % inhibition (human huMAO-B): [38 ± 3] %
IC50 (human MAO-A [4]; [7]): ~10 µM

COc1cccc2cc(-c3cc(=O)oc4c(CN(C)Cc5ccccc5)c(O)ccc34)c(=O)oc12 [Compound 8d]
IC50 (electric eel eeAChE): ~10 µM
IC50 (horse serum eqBChE; [7]): ~10 µM
huMAO-B % inhibition (human huMAO-B): [42 ± 3] %
huMAO-A % inhibition (human MAO-A [4]): [31 ± 4] %

— publication PMC12562640, “Investigating Amphoteric 3,4′-Biscoumarin-Based ortho-[(Dialkylamino)methyl]phenols as Dual MAO and ChE Inhibitors” (International Journal of Molecular Sciences, 2025)
